Reference: ChEMBL document CHEMBL3627608, “Crystal structures of human RIP2 kinase catalytic domain complexed with ATP-competitive inhibitors: Foundations for understanding inhibitor selectivity” (Bioorg Med Chem, 2015)

How the values were obtained:
[1] = target: Inactive tyrosine-protein kinase PEAK1 (Homo sapiens) (UniProt Q9H792); experiment: Inhibition of PEAK1 (unknown origin) at 10 uM after 120 mins P33 radiolabeled kinase activity assay
[2] = target: Proto-oncogene tyrosine-protein kinase receptor Ret (Homo sapiens) (UniProt P07949); experiment: Inhibition of RET (unknown origin) at 10 uM after 120 mins P33 radiolabeled kinase activity assay
[3] = target: Dual specificity mitogen-activated protein kinase kinase 2 (Homo sapiens) (UniProt P36507); experiment: Inhibition of MEK2 (unknown origin) at 10 uM after 120 mins P33 radiolabeled kinase activity assay
[4] = target: T1, Ephrin type-B receptor 4 (Homo sapiens) (UniProt P54760); experiment: Inhibition of EPHB4 (unknown origin) at 10 uM after 120 mins P33 radiolabeled kinase activity assay
T1 sequence (whole entry): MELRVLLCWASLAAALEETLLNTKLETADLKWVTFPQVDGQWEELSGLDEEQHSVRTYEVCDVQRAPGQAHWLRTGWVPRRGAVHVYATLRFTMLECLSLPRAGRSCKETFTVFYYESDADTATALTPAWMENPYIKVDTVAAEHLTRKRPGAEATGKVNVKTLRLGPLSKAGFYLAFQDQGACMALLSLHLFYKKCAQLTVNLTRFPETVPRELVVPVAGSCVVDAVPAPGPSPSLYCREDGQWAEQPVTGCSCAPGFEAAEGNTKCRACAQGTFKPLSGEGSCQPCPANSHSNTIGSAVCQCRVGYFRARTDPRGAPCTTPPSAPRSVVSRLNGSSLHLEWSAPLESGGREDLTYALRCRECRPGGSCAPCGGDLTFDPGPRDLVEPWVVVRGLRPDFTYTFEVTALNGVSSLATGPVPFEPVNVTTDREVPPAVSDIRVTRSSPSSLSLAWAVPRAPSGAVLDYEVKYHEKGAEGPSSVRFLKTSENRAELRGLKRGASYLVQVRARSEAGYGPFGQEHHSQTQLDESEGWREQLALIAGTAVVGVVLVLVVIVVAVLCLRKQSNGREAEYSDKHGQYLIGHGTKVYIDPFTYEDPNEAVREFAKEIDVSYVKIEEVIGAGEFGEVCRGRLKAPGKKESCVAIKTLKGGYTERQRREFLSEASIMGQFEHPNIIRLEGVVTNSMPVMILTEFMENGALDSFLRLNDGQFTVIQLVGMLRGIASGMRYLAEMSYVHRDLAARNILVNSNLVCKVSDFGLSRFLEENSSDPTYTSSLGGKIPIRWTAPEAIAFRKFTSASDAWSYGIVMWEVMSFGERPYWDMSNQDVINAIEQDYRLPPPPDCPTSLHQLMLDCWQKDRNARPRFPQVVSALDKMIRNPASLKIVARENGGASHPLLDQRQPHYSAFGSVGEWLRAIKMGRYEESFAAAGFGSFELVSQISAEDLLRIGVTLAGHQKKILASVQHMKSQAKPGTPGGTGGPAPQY

[5] = target: Activin receptor type-1-like (Homo sapiens) (UniProt P37023); experiment: Inhibition of ALK1 (unknown origin) at 10 uM after 120 mins P33 radiolabeled kinase activity assay
[6] = target: T2, Protein kinase C zeta type (Homo sapiens) (UniProt Q05513); experiment: Inhibition of PKCzeta (unknown origin) at 10 uM after 120 mins P33 radiolabeled kinase activity assay
T2 sequence (whole entry): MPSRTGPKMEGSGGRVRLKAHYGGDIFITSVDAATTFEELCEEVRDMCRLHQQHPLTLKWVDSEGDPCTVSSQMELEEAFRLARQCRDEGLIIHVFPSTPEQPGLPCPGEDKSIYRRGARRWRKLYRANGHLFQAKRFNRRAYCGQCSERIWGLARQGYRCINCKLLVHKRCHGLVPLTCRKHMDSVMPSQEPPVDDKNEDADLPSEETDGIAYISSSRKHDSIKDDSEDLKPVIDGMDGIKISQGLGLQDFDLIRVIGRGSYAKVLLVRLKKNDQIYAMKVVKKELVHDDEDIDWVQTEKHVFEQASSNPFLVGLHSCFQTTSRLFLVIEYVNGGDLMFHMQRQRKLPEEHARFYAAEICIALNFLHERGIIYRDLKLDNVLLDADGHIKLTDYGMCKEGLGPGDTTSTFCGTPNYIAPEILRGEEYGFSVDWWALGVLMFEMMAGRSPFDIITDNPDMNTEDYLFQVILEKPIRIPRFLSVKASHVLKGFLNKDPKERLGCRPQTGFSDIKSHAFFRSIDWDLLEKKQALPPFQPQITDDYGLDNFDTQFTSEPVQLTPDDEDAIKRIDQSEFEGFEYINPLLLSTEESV

[7] = target: Casein kinase I isoform gamma-3 (Homo sapiens) (UniProt Q9Y6M4); experiment: Inhibition of CK1gamma3 (unknown origin) at 10 uM after 120 mins P33 radiolabeled kinase activity assay
[8] = target: Serine/threonine-protein kinase PLK3 (Homo sapiens) (UniProt Q9H4B4); experiment: Inhibition of PLK3 (unknown origin) at 10 uM after 120 mins P33 radiolabeled kinase activity assay
[9] = target: cAMP-dependent protein kinase catalytic subunit beta (Homo sapiens) (UniProt P22694); experiment: Inhibition of PKAcbeta (unknown origin) at 10 uM after 120 mins P33 radiolabeled kinase activity assay
[10] = target: Mitogen-activated protein kinase kinase kinase 10 (Homo sapiens) (UniProt Q02779); experiment: Inhibition of MLK2 (unknown origin) at 10 uM after 120 mins P33 radiolabeled kinase activity assay
[11] = target: Receptor tyrosine-protein kinase erbB-2 (Homo sapiens) (UniProt P04626); experiment: Inhibition of ERBB2 (unknown origin) at 10 uM after 120 mins P33 radiolabeled kinase activity assay
[12] = target: Cyclin-dependent kinase 14 (Homo sapiens) (UniProt O94921); experiment: Inhibition of PFTK1 (unknown origin) at 10 uM after 120 mins P33 radiolabeled kinase activity assay
Cyclin-dependent kinase 14 (Homo sapiens), sequence (O94921 whole entry): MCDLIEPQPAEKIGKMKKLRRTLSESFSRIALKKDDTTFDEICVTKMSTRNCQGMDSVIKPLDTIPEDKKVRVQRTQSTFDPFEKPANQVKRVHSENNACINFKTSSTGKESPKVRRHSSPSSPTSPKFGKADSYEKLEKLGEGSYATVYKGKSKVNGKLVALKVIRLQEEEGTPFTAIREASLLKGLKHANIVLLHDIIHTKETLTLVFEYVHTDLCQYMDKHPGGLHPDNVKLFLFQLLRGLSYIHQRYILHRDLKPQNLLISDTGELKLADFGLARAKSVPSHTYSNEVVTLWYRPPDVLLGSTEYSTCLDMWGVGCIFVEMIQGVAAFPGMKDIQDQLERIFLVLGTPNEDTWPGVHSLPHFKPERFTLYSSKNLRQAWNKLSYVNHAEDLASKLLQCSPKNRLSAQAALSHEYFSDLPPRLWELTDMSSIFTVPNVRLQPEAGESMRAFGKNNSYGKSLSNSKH

Activin receptor type-1-like (Homo sapiens), sequence (P37023 whole entry): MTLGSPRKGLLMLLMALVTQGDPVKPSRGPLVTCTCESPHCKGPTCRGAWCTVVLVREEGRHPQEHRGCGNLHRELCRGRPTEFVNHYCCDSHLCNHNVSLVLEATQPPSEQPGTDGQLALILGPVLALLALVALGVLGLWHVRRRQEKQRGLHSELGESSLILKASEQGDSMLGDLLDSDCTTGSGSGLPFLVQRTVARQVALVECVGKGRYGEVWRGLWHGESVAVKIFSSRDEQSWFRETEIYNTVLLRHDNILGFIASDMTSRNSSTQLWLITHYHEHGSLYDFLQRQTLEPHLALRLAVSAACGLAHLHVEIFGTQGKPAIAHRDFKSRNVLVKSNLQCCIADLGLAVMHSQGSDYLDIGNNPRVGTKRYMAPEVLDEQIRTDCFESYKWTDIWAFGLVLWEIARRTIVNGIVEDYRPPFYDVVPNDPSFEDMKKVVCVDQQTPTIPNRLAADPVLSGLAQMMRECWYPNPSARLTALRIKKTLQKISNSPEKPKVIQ
Proto-oncogene tyrosine-protein kinase receptor Ret (Homo sapiens), sequence (P07949 whole entry): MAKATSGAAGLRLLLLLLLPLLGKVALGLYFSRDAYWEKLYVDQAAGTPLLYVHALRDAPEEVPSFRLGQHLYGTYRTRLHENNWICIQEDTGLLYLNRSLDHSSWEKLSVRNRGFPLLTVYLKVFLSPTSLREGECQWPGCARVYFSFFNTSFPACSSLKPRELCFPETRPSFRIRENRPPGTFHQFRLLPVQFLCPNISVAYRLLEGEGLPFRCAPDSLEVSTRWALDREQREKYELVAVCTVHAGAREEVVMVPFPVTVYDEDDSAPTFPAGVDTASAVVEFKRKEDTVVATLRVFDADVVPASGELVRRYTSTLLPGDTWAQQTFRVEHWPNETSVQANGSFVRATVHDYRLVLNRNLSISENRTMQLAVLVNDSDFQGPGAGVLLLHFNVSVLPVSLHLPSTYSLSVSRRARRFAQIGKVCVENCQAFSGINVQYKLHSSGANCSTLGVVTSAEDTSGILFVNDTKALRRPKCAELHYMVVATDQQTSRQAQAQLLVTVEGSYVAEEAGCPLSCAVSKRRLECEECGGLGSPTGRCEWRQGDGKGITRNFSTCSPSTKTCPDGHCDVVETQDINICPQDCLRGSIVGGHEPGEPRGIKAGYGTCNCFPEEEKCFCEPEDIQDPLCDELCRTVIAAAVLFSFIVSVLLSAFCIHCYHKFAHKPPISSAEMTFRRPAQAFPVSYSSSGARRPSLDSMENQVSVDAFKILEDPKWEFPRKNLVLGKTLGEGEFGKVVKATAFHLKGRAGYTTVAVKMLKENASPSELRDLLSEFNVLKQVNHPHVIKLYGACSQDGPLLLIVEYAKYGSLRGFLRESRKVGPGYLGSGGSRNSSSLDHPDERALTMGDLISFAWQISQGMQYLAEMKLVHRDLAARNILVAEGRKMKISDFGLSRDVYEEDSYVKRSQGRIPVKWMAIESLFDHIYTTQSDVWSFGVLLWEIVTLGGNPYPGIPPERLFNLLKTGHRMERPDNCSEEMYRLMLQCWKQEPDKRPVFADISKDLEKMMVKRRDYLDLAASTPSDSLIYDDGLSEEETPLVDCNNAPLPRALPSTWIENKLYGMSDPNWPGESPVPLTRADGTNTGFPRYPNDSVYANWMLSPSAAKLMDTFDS
Serine/threonine-protein kinase PLK3 (Homo sapiens), sequence (Q9H4B4 whole entry, looked up): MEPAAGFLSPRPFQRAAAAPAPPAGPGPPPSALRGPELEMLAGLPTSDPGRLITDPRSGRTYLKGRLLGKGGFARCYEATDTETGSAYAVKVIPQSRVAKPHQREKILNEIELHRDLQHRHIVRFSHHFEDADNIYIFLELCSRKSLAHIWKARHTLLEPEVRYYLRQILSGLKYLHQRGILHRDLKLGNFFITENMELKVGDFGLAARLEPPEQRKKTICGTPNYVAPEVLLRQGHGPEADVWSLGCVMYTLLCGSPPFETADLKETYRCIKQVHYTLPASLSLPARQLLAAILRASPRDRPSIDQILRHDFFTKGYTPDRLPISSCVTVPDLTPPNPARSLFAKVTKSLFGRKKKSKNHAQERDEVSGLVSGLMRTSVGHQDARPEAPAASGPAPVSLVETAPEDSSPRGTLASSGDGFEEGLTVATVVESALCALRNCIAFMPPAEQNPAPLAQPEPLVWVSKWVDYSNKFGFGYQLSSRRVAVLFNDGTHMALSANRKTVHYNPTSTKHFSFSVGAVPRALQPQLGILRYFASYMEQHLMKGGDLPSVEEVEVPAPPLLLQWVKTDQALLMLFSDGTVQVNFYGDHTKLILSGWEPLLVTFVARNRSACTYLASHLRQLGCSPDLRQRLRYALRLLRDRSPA
Receptor tyrosine-protein kinase erbB-2 (Homo sapiens), sequence (P04626 whole entry): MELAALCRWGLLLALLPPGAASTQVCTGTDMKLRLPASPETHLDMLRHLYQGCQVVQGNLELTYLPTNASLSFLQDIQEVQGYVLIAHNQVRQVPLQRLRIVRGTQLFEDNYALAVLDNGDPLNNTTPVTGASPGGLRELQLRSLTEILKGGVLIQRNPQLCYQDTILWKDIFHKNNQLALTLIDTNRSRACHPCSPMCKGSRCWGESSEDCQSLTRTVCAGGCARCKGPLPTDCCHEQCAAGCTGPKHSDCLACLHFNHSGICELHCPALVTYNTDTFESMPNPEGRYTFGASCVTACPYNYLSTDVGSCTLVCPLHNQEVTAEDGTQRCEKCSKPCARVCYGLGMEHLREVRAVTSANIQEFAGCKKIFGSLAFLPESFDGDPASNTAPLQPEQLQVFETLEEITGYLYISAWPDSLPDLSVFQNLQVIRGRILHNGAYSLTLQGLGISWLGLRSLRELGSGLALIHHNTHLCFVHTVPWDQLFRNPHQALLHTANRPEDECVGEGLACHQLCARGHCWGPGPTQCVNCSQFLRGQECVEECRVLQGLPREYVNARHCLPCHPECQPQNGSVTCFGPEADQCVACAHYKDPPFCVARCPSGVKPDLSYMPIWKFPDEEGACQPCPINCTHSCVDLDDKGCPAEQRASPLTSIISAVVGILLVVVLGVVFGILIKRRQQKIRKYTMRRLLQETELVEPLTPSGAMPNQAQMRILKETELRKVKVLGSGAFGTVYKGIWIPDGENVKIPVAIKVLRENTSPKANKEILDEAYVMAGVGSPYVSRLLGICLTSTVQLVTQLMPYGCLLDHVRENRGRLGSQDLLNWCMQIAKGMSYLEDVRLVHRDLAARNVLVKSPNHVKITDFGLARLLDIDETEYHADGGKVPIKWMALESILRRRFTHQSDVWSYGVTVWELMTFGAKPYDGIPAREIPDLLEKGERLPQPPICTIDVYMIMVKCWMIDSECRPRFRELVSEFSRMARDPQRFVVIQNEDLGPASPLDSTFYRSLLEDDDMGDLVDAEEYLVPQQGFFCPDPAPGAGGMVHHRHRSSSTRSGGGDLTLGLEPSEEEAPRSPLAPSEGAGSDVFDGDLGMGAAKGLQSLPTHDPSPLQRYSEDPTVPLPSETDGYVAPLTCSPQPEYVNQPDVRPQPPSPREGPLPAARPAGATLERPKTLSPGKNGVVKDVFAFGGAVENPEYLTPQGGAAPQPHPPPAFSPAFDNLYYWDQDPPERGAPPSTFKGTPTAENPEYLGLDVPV
Mitogen-activated protein kinase kinase kinase 10 (Homo sapiens), sequence (Q02779 whole entry, looked up): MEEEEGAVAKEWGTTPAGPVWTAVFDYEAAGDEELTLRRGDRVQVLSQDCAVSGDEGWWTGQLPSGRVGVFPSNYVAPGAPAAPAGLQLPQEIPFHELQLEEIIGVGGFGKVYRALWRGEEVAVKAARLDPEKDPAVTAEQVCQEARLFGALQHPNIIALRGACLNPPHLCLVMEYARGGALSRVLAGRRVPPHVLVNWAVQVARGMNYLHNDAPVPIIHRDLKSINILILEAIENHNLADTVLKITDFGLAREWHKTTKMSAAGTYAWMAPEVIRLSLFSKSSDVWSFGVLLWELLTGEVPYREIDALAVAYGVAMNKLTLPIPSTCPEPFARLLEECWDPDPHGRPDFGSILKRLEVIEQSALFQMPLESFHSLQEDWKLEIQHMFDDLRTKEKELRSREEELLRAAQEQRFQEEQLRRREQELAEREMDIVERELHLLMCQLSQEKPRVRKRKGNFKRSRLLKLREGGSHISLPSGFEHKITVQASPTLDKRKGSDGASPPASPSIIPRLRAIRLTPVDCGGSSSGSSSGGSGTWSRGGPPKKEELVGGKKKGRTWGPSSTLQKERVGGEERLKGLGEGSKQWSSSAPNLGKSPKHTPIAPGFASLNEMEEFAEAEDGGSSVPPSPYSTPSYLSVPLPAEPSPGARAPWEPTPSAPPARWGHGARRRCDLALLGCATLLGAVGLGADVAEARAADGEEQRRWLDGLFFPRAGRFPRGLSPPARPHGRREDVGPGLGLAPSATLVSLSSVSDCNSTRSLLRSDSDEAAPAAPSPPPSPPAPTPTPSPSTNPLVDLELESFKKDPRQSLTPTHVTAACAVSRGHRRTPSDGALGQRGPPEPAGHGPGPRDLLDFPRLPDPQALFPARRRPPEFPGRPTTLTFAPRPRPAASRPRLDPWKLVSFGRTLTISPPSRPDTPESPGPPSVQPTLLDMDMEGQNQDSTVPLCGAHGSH

inhibition [1]	inhibition [2]	inhibition [3]	inhibition [4]	inhibition [5]	inhibition [6]	inhibition [7]	inhibition [8]	inhibition [9]	inhibition [10]	inhibition [11]	inhibition [12]	Compound
100%	98%	79%	93.8%	96.2%	7.55%	5.39%	3.68%	-0.07%	102%	95.3%	50.9%	CS(=O)(=O)c1cccc(Nc2nccc(-c3sc(N4CCOCC4)nc3-c3cccc(NS(=O)(=O)c4c(F)cccc4F)c3)n2)c1
82.8%	36%	-5.83%	29.3%	28.2%	3.68%	0.42%	0.99%	-0.18%	8.79%	2.53%	-3.92%	COCCNC(=O)c1ccc2c(c1)nc(-c1cnc(-c3ccc(Cl)cc3)[nH]1)n2CCOC
86.1%	99.2%	52.5%	96%	3.54%	5.44%	3.82%	-1.93%	55.2%	39.5%	-7.24%	86.7%	CC(C)(C)c1cc(NC(=O)Nc2ccc(Oc3ccncc3)cc2)no1
